Reference: US9018388B2, “Pesticidal compositions and processes related thereto” (Dow AgroSciences LLC, priority 2012, dated 2015)
Read-outs that look alike come from different tables or passages of the source.

Columns and labels:
[1] = tested on: Corn Earworm (CEW) (Helicoverpa zea); test: Bioassay on corn earworm (CEW), 128-well diet tray assay; assay type: in vivo; details: Helicoverpa zea, read-out: % Mortality CEW 50 μg/cm^2
Protocol: (§1) Bioassays on Beet Armyworm (“BAW”) and Corn Earworm (“CEW”)
(§2) Certain molecules disclosed in this document were tested against BAW and CEW using procedures described in the following examples. In the reporting of the results, the “BAW & CEW Rating Table” was used (See Table Section).
Bioassays on CEW (Helicoverpa zea)
Bioassays on CEW were conducted using a 128-well diet tray assay. One to five second instar CEW larvae were placed in each well (3 mL) of the diet tray that had been previously filled with 1 mL of artificial diet to which 50 μg/cm^2 of the test compound (dissolved in 50 μL of 90:10 acetone-water mixture) had been applied (to each of eight wells) and then allowed to dry. Trays were covered with a clear self-adhesive cover and held at 25° C., 14:10 light-dark for five to seven days. Percent mortality was recorded for the larvae in each well; activity in the eight wells was then averaged. The results are indicated in the table entitled “Table 5: Biological Results” (See Table Section).

[2] = tested on: Beet Armyworm (BAW) (Spodoptera exigua); test: Bioassay on beet armyworm (BAW), 128-well diet tray assay; assay type: in vivo; details: Spodoptera exigua, read-out: % Mortality BAW 50 μg/cm^2
Protocol: as §1, §2
Bioassays on BAW (Spodoptera exigua)
Bioassays on BAW were conducted using a 128-well diet tray assay. One to five second instar BAW larvae were placed in each well (3 mL) of the diet tray that had been previously filled with 1 mL of artificial diet to which 50 μg/cm^2 of the test compound (dissolved in 50 μL of 90:10 acetone-water mixture) had been applied (to each of eight wells) and then allowed to dry. Trays were covered with a clear self-adhesive cover and held at 25° C., 14:10 light-dark for five to seven days. Percent mortality was recorded for the larvae in each well; activity in the eight wells was then averaged. The results are indicated in the table entitled “Table 5: Biological Results” (See Table Section).

| SMILES | pest or weed control at 50 µg/cm2, 50 µg/cm2 ([1]; Corn earworm, 50 μg/cm^2) [%] | pest or weed control at 50 µg/cm2, 50 µg/cm2 ([2]; Beet armyworm, 50 μg/cm^2) [%] | pest or weed control at 50 µg/cm2, 50 µg/cm2 [1] [%] | pest or weed control at 50 µg/cm2, 50 µg/cm2 [2] [%] |
| --- | --- | --- | --- | --- |
| Cc1cccc(C)c1N1C(=O)CS/C1=N\N=C\c1ccc(-c2ccn(-c3ccc(OC(F)(F)F)cc3)n2)cc1 [Compound 103C] | 50 to 100 | 50 to 100 | – | – |
| CCc1ccccc1N1C(=O)CS/C1=N\N=C\c1ccc(-c2ncn(-c3ccc(OC(F)(F)F)cc3)n2)cc1 [Compound 94C] | 50 to 100 | 50 to 100 | – | – |
| CC(F)(F)Oc1ccccc1N1C(=O)CCS/C1=N\N=C\c1ccc(-c2ncn(-c3ccc(OC(F)(F)F)cc3)n2)cc1 [Compound 229C] | 50 to 100 | 50 to 100 | – | – |
| Fc1cccc(F)c1N1CS/C1=N\N=C\c1ccc(-c2ncn(-c3ccc(OC(F)(F)F)cc3)n2)cc1 [Compound 245C] | 50 to 100 | 50 to 100 | – | – |
| Cc1cccc(C)c1/N=C(/N/N=C/c1ccc(-c2ncn(-c3ccc(OC(F)(F)F)cc3)n2)cc1)SCOC(=O)C(C)C [Compound 25C] | 50 to 100 | 50 to 100 | – | – |
| Cc1cccc(Cl)c1N1CS/C1=N\N=C\c1ccc(-c2ncn(-c3ccc(OC(F)(F)F)cc3)n2)cc1 [Compound 246C] | 50 to 100 | 50 to 100 | – | – |
| Cc1cccc(C)c1/N=C(/N/N=C/c1ccc(-c2ncn(-c3ccc(OC(F)(F)F)cc3)n2)cc1)SCC#C[Si](C)(C)C [Compound 9C] | – | – | 50 to 100 | 50 to 100 |
| O=C1CS/C(=N\N=C\c2ccc(-c3cn(-c4ccc(OC(F)(F)F)cc4)cn3)cc2)N1c1c(Cl)cccc1Cl [Compound 102C] | 50 to 100 | 50 to 100 | – | – |
| O=C1CS/C(=N\N=C\c2ccc(-c3ncn(-c4ccc(OC(F)(F)F)cc4)n3)cc2)N1c1ccccc1Cl [Compound 106C] | 50 to 100 | 50 to 100 | – | – |
| CC1CS/C(=N\N=C\c2ccc(-c3ncn(-c4ccc(OC(F)(F)F)cc4)n3)cc2)N1c1ccccc1OC(F)(F)F (stereo not drawn) [Compound 168C] | 50 to 100 | 50 to 100 | – | – |
| COc1cc(C)c(N2C(=O)CS/C2=N\N=C\c2ccc(-c3ncn(-c4ccc(OC(F)(F)F)cc4)n3)cc2)c(C)n1 [Compound 101C] | 50 to 100 | 50 to 100 | – | – |
| O=C1CCS/C(=N\N=C\c2ccc(-c3ncn(-c4ccc(OC(F)(F)F)cc4)n3)cc2)N1c1c(Cl)cccc1C(F)(F)F [Compound 228C] | 50 to 100 | 50 to 100 | – | – |
| Cc1cccc(C)c1/N=C(/N/N=C/c1ccc(-c2ncn(-c3ccc(OC(F)(F)F)cc3)n2)cc1)SCC(=O)NCC(C)C [Compound 55C] | 50 to 100 | 50 to 100 | – | – |
| CC(C)c1ccccc1N1CCS/C1=N\N=C\c1ccc(-c2ncn(-c3ccc(C(F)(F)F)cc3)n2)cc1 [Compound 134C] | 50 to 100 | 50 to 100 | – | – |
| Cc1cccc(C)c1/N=C(/N/N=C/c1ccc(-c2ncn(-c3ccc(OC(F)(F)F)cc3)n2)cc1)SCc1ccccc1 [Compound 10C] | 50 to 100 | 50 to 100 | – | – |
| COc1cc(C)c(/N=C(/N/N=C/c2ccc(-c3ncn(-c4ccc(OC(F)(F)F)cc4)n3)cc2)SCOC(=O)C(C)OCC(F)(F)F)c(C)c1 (stereo not drawn) [Compound 38C] | 50 to 100 | 50 to 100 | – | – |
| COc1cc(C)c(/N=C(/N/N=C/c2ccc(-c3ncn(-c4ccc(OC(F)(F)F)cc4)n3)cc2)SCOC(=O)C2CCCO2)c(C)c1 (stereo not drawn) [Compound 44C] | 50 to 100 | 50 to 100 | – | – |
| CC(C)c1ccccc1N1CS/C1=N\N=C\c1ccc(-c2ncn(-c3ccc(OC(F)(F)C(F)(F)F)cc3)n2)cc1 [Compound 247C] | 50 to 100 | 50 to 100 | – | – |
| CCOc1ccccc1N1C(=O)CS/C1=N\N=C\c1ccc(-c2ncn(-c3ccc(OC(F)(F)F)cc3)n2)cc1 [Compound 116C] | 50 to 100 | 50 to 100 | – | – |
| FC(F)Oc1ccccc1N1CCCS/C1=N\N=C\c1ccc(-c2ncn(-c3ccc(OC(F)(F)F)cc3)n2)cc1 [Compound 200C] | 50 to 100 | 50 to 100 | – | – |

| SMILES | pest or weed control at 50 µg/cm2, 50 µg/cm2 ([1]; Corn earworm, 50 μg/cm^2) [%] | pest or weed control at 50 µg/cm2, 50 µg/cm2 ([2]; Beet armyworm, 50 μg/cm^2) [%] | pest or weed control at 50 µg/cm2, 50 µg/cm2 [1] [%] | pest or weed control at 50 µg/cm2, 50 µg/cm2 [2] [%] |
| --- | --- | --- | --- | --- |
| CCc1cccc(C)c1N1CS/C1=N\N=C\c1ccc(-c2ncn(-c3ccc(OC(F)(F)F)cc3)n2)cc1 [Compound 243C] | 50 to 100 | 50 to 100 | – | – |
| CCc1cccc(C)c1N1C(=O)CCS/C1=N\N=C\c1ccc(-c2ncn(-c3ccc(OC(F)(F)F)cc3)n2)cc1 [Compound 225C] | 50 to 100 | 50 to 100 | – | – |
| COC(=O)C1CC(c2ccc(/C=N/N=C3\SCC(=O)N3c3c(Cl)cccc3Cl)cc2)=NN1c1ccc(OC(F)(F)F)cc1 (stereo not drawn) [Compound 109C] | 50 to 100 | 50 to 100 | – | – |
| CC(C)c1ccc(F)cc1N1CS/C1=N\N=C\c1ccc(-c2ncn(-c3ccc(C(C)(F)F)cc3)n2)cc1 [Compound 259C] | 50 to 100 | 50 to 100 | – | – |
| COc1cc(C)c(/N=C(\N/N=C/c2ccc(-c3ncn(-c4ccc(C(F)(F)F)cc4)n3)cc2)SCOC(=O)C(C)C)c(C)c1 [Compound 46C] | 50 to 100 | 50 to 100 | – | – |
| COc1ccc(/N=C(/N/N=C/c2ccc(-c3ncn(-c4ccc(OC(F)(F)C(F)(F)F)cc4)n3)cc2)SCC(=O)O)c(C)c1 [Compound 50C] | 50 to 100 | 50 to 100 | – | – |
| CC(C)(C)c1ccccc1N1CCCS/C1=N\N=C\c1ccc(-c2ncn(-c3ccc(OC(F)(F)F)cc3)n2)cc1 [Compound 210C] | 50 to 100 | 50 to 100 | – | – |
| Cc1cccc(C)c1N1CS/C1=N\N=C\c1ccc(-c2ncn(-c3ccc(OC(F)(F)F)cc3)n2)cc1 [Compound 241C] | 50 to 100 | 50 to 100 | – | – |
| FC(F)(F)Oc1ccc(-n2cnc(-c3ccc(/C=N/N=C4\SCCN4c4ccccc4-c4ccccc4)cc3)n2)cc1 [Compound 144C] | 50 to 100 | 50 to 100 | – | – |
| O=C1CCS/C(=N\N=C\c2ccc(-c3ncn(-c4ccc(OC(F)(F)F)cc4)n3)cc2)N1c1ccccc1OC(F)F [Compound 233C] | 50 to 100 | 50 to 100 | – | – |
| CC1CS/C(=N\N=C\c2ccc(-c3ncn(-c4ccc(OC(F)(F)F)cc4)n3)cc2)N1c1c(Cl)cccc1C(F)(F)F (stereo not drawn) [Compound 160C] | 50 to 100 | 50 to 100 | – | – |
| COc1ccccc1N1CCCS/C1=N\N=C\c1ccc(-c2ncn(-c3ccc(OC(F)(F)F)cc3)n2)cc1 [Compound 191C] | 50 to 100 | 50 to 100 | – | – |
| COc1ccc(N2C(=O)CCS/C2=N\N=C\c2ccc(-c3ncn(-c4ccc(OC(F)(F)F)cc4)n3)cc2)c(C)c1 [Compound 231C] | 50 to 100 | 50 to 100 | – | – |
| Cc1cccc(C)c1/N=C(/N/N=C/c1ccc(-c2ncn(-c3ccc(OC(F)(F)F)cc3)n2)cc1)SCC(=O)NC[C@@H]1CCCN(C(=O)OC(C)(C)C)C1 [Compound 56C, (S)-tert-butyl 3-((2-((Z)-(2,6-dimethylphenylimino)-((E)-2-(4-(1-(4-(trifluoromethoxy)phenyl)-1H-1,2,4-triazol-3-yl)benzylidene)hydrazinyl)-methylthio)acetamido)methyl)piperidine-1-carboxylate] | 50 to 100 | 50 to 100 | – | – |
| CC1CS/C(=N\N=C\c2ccc(-c3ncn(-c4ccc(OC(F)(F)F)cc4)n3)cc2)N(c2c(Cl)cccc2C(F)(F)F)C1 (stereo not drawn) [Compound 215C] | 50 to 100 | 50 to 100 | – | – |
| CC(C)c1ccc(F)cc1N1CS/C1=N\N=C\c1ccc(-c2ncn(-c3ccc(C(F)(C(F)(F)F)C(F)(F)F)cc3)n2)cc1 [Compound 257C] | 50 to 100 | 50 to 100 | – | – |
| CC(C)(C)c1ccccc1N1C(=O)CCS/C1=N\N=C\c1ccc(-c2ncn(-c3ccc(OC(F)(F)F)cc3)n2)cc1 [Compound 232C] | 50 to 100 | 50 to 100 | – | – |
| CN(C)c1cccc(N2C(=O)CS/C2=N\N=C\c2ccc(-c3ncn(-c4ccc(OC(F)(F)F)cc4)n3)cc2)c1 [Compound 97C] | 50 to 100 | 50 to 100 | – | – |
| O=C1CS/C(=N\N=C\c2ccc(-c3ncn(-c4ccc(OC(F)(F)F)cc4)n3)cc2)N1c1ccccc1OC(F)F [Compound 126C] | 50 to 100 | 50 to 100 | – | – |
